Molecular target: benzodiazepine site of the GABAA receptor
Assay: Ligand binding assay (3H-Ro15-1788 displacement, purified rat cortical membranes)
Conditions: previously determined; used in the Cheng-Prusoff equation; read-out: Kd, binding dissociation constant of the radioligand

For `CCOC(=O)c1ncn2c1CN(C)C(=O)c1cc(F)ccc1-2` [^3H-Ro15-1788], the Kd was 1 nM.
